#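 A five-concentration, 48-hour dose response in 96-well plates underlies each endpoint, interpolated linearly between surrounding concentrations. At the GI50, growth is halved.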 Active and inactive are the calls of the source. Cut-off read from the data, not from the text of the source: active = GI50 up to about 1.1 µM and inactive = higher.
# Legend:
# Experiment in all cases: NCI-60 cell line screen, 48 h
# NCI-H23 = system: NCI-H23
# LXFL 529 = system: LXFL 529
# KM-20L2 = system: KM-20L2
# RXF 393 = system: RXF 393
# MCF7 = system: MCF7
# SNB-19 = system: SNB-19
# U-251 = system: U-251
# SNB-75 = system: SNB-75
# SK-MEL-2 = system: SK-MEL-2
# OVCAR-8 = system: OVCAR-8
# MDA-MB-435 = system: MDA-MB-435
# HL-60 = system: HL-60
# Malme-3M = system: Malme-3M
# SW-620 = system: SW-620
# Hs-578T = system: Hs-578T
# K562 = system: K562
# OVCAR-5 = system: OVCAR-5
# MDA-N = system: MDA-N
# A498 = system: A498
# HOP-62 = system: HOP-62
# LOX IMVI = system: LOX IMVI
# CCRF-CEM = system: CCRF-CEM
# DLD-1 = system: DLD-1
# NCI-H522 = system: NCI-H522
# 786-0 = system: 786-0
# UACC-257 = system: UACC-257
# DMS-114 = system: DMS-114
# OVCAR-4 = system: OVCAR-4
# SNB-78 = system: SNB-78
# UO-31 = system: UO-31
# HOP-18 = system: HOP-18
# CAKI-1 = system: CAKI-1
# XF498 = system: XF498
# SK-MEL-28 = system: SK-MEL-28
# IGROV-1 = system: IGROV-1
# SF-539 = system: SF-539
# KM12 = system: KM12
# HCT-116 = system: HCT-116
# HOP-92 = system: HOP-92
# TK-10 = system: TK-10
# COLO 205 = system: COLO 205
# HCT-15 = system: HCT-15
# SK-MEL-5 = system: SK-MEL-5
# HCC 2998 = system: HCC 2998
# HT-29 = system: HT-29
# T47D = system: T47D
# NCI-H226 = system: NCI-H226
# M14 = system: M14
# PC-3 = system: PC-3
# MDA-MB-231 = system: MDA-MB-231
# SF-268 = system: SF-268
# SF-295 = system: SF-295
# BT-549 = system: BT-549
# M19-MEL = system: M19-MEL
# SK-OV-3 = system: SK-OV-3
# MOLT-4 = system: MOLT-4
# A549 = system: A549
# SN12C = system: SN12C
# DMS-273 = system: DMS-273
# DU-145 = system: DU-145
# OVCAR-3 = system: OVCAR-3
# UACC-62 = system: UACC-62
# EKVX = system: EKVX
# NCI-H460 = system: NCI-H460
smiles,measurement,setting,value
Cc1cc(N(CCC#N)S(=O)(=O)c2ccccc2)ccc1/C=N/c1ccc(C(=O)O)cc1,GI50,NCI-H23,16.1 µM (inactive)
same,GI50,LXFL 529,1.76 µM (inactive)
same,GI50,KM-20L2,9.82 µM (inactive)
same,GI50,RXF 393,1.7 µM (inactive)
same,GI50,MCF7,> 100 µM (inactive)
same,GI50,SNB-19,29.6 µM (inactive)
same,GI50,U-251,21.3 µM (inactive)
same,GI50,SNB-75,14 µM (inactive)
same,GI50,SK-MEL-2,6.7 µM (inactive)
same,GI50,OVCAR-8,7.71 µM (inactive)
same,GI50,MDA-MB-435,> 100 µM (inactive)
same,GI50,HL-60,5.21 µM (inactive)
same,GI50,Malme-3M,4.61 µM (inactive)
same,GI50,SW-620,7.43 µM (inactive)
same,GI50,Hs-578T,56 µM (inactive)
same,GI50,K562,7.96 µM (inactive)
same,GI50,OVCAR-5,20.3 µM (inactive)
same,GI50,MDA-N,> 100 µM (inactive)
same,GI50,A498,29.6 µM (inactive)
same,GI50,HOP-62,31 µM (inactive)
same,GI50,LOX IMVI,13.2 µM (inactive)
same,GI50,CCRF-CEM,6.4 µM (inactive)
same,GI50,DLD-1,1.99 µM (inactive)
same,GI50,NCI-H522,5.51 µM (inactive)
same,GI50,786-0,5.45 µM (inactive)
same,GI50,UACC-257,16.9 µM (inactive)
same,GI50,DMS-114,3.41 µM (inactive)
same,GI50,OVCAR-4,5.62 µM (inactive)
same,GI50,SNB-78,12.3 µM (inactive)
same,GI50,UO-31,11.1 µM (inactive)
same,GI50,HOP-18,3.24 µM (inactive)
same,GI50,CAKI-1,2.23 µM (inactive)
same,GI50,XF498,8.71 µM (inactive)
same,GI50,SK-MEL-28,15.3 µM (inactive)
same,GI50,IGROV-1,30 µM (inactive)
same,GI50,SF-539,15.2 µM (inactive)
same,GI50,KM12,20.4 µM (inactive)
same,GI50,HCT-116,7.87 µM (inactive)
same,GI50,HOP-92,> 100 µM (inactive)
same,GI50,TK-10,8.73 µM (inactive)
same,GI50,COLO 205,6.41 µM (inactive)
same,GI50,HCT-15,7.53 µM
same,GI50,SK-MEL-5,13.8 µM (inactive)
same,GI50,HCC 2998,16.8 µM (inactive)
same,GI50,HT-29,15.7 µM (inactive)
same,GI50,T47D,> 100 µM (inactive)
same,GI50,NCI-H226,21.8 µM (inactive)
same,GI50,M14,9.77 µM (inactive)
same,GI50,PC-3,> 100 µM (inactive)
same,GI50,MDA-MB-231,> 100 µM (inactive)
same,GI50,SF-268,> 41 µM (inactive)
same,GI50,SF-295,29.1 µM (inactive)
same,GI50,BT-549,> 100 µM (inactive)
same,GI50,M19-MEL,2.75 µM (inactive)
same,GI50,SK-OV-3,34.1 µM (inactive)
same,GI50,MOLT-4,6.98 µM (inactive)
same,GI50,A549,31.6 µM (inactive)
same,GI50,SN12C,6.21 µM (inactive)
same,GI50,DMS-273,6.61 µM (inactive)
same,GI50,DU-145,> 100 µM (inactive)
same,GI50,OVCAR-3,10.1 µM (inactive)
same,GI50,UACC-62,17.4 µM (inactive)
same,GI50,EKVX,17.9 µM (inactive)
same,GI50,NCI-H460,19.1 µM (inactive)
